Test results: US4235893A, “Ester derivatives of 4-hydroxy-4-androstene-3,17-dione and a method for inhibiting estrogen biosynthesis” (priority 1978, dated 1980)

What was measured:
estrogen biosynthesis [1] = settings: Endocrinology 92, 866 (1973); Endocrinology 100, 1684 (1977); cited from earlier work
[2] = Polarity by thin layer chromatography; format: physicochemical; settings: compared with 4-acetate-4-A
[3] = Release of compound from skin implant in rat studies; format: in vivo
[4] = system: Estrogen-dependent mammary tumors; assay: In vivo effect on DMBA-induced estrogen-dependent mammary tumors in rats; parameters: species or system rat; settings: after 4 weeks, wafer with 150 mg plus sc 2.5 mg/100 g twice daily
Protocol: Estrogen-dependent mammary tumors where induced in rats with DMBA. Prior to treatment the 7 sample group rats had 23 tumors; the 6 control group rats had 17 tumors. During the initial treatment period the number of tumors increased to 28 for the sample group, 24 for the control group.
The sample group was treated with implanted wafers containing 0.5 g silastic and 150 mg 4-acetate-4-A. The sample group was also treated twice daily for 4 weeks with sc injections of 4-acetate-4-A (2.5 mg/100 g animal) in a suspending vehicle. The control was treated the same except that 4-acetate-4-A was omitted from the wafers and the injection.

estrogen biosynthesis [5] = assay: In vivo inhibition of estrogen biosynthesis; parameters: species or system rat
mating in rats = assay: In vivo effect on mating in rats (silastic wafer implant); parameters: species or system rat; settings: 8 female rats
Protocol: Female rats showing at least 2 consecutive 4-day cycles were used. On the day of diestrus I, a silastic wafer, was inserted under the dorsal skin of each rat. The wafer, about 25 mm in diameter and 1 mm thick, was prepared by polymerizing 0.5 g of Corning medical grade Silastic 382 with 75 mg 4-acetate-4-A, using stannous octoate catalyst. Each female was housed with 2 fertile males until mating occurred. Control animals were treated with same except that 4-acetate-4-A was omitted from the wafer.

[6] = system: implantation in mated rats; assay: In vivo effect on implantation in mated rats; parameters: species or system rat; settings: 7 mated rats; 100 mg/kg daily by injection from Day 2 of pregnancy
Protocol: Injections of 4-acetate-4-A in a suspending vehicle were begun at 0800 hr on Day 2 of pregnancy, and repeated thereafter at […], and at 2400 hr as 2/6 daily dose. The daily does was 100 mg of 4-acetate-4-A per kg of body weight. Control animals were treated the same except that only the suspending vehicle was injected.

estrogen biosynthesis [7] = assay: In vitro inhibition of estrogen biosynthesis; format: biochemical

C[C@]12CCC(=O)C=C1C(=O)C[C@@H]1[C@@H]2CC[C@]2(C)C(=O)CC[C@@H]12 (stereo in doubt) [4-androstene-3,6,17-trione]
inhibition of estrogen biosynthesis (literature) (estrogen biosynthesis [1]): effective inhibitors of estrogen biosynthesis

C[C@]12C=CC(=O)C=C1C=C[C@@H]1[C@@H]2CC[C@]2(C)C(=O)CC[C@@H]12 [1,4,6-androstatriene-3,17-dione]
inhibition of estrogen biosynthesis (literature) (estrogen biosynthesis [1]): effective inhibitors of estrogen biosynthesis

C[C@]12CCC(=O)C(O)=C1CC[C@@H]1[C@@H]2CC[C@]2(C)C(=O)CC[C@@H]12 [4-OH-4-A, 4-hydroxy-4-androstene-3,17-dione]
polarity (thin layer chromatography) [2]: less polar than 4-acetate-4-A | inhibition of estrogen biosynthesis (literature) (estrogen biosynthesis [1]): effective inhibitor of estrogen biosynthesis | diffusion / release from skin implant [3]: does not diffuse as well from the implant

CC(=O)OC1=C2CCC3C4CCC(=O)C4(C)CCC3C2(C)CCC1=O (stereo not shown) [4-acetate-4-A]
tumors completely regressed [4]: 64% | tumors regressed to less than 1/2 their pretreatment size ([4]; in addition to those completely regressed): 32% | ovarian estrogen secretion (estrogen biosynthesis [5]; in vivo rat studies): lower ovarian estrogen secretion | Number of animals mating on a given day: 1st (mating in rats; 1st day, silastic wafer with 75 mg 4-acetate-4-A under dorsal skin): 0 | Number of animals mating on a given day: 6th (mating in rats; 6th day, silastic wafer with 75 mg): 2 | Number of animals mating on a given day: 7th (mating in rats; 7th day, silastic wafer with 75 mg): 2 | Number of animals mating on a given day: 15th day (mating in rats; 15th day, silastic wafer with 75 mg): 3 | Number of animals mating on a given day: 2d (mating in rats; 2d day, silastic wafer with 75 mg): 1 | Animals without implants [6]: 4 | Average number of normal-sized implants/animal [6]: 1.7 | Average number of small (<2.4 mm) implants/animal [6]: 1.4 | Number of animals affected by treatment [6]: 7 | diffusion / release from skin implant [3]: continuous, uniform release

C[C@]12CC[C@H]3[C@@H](CCC4=CC(=O)CC[C@@H]43)[C@@H]1CCC2=O [4-estrene-3,17-dione]
inhibition of estrogen biosynthesis (literature) (estrogen biosynthesis [1]): effective inhibitors of estrogen biosynthesis

CC12CCC3C(CCC4=C(OC(=O)CCC(=O)O)C(=O)CCC43C)C1CCC2=O (stereo not shown) [4-hemisuccinate-4-A]
ability to inhibit estrogen biosynthesis (in vitro) (estrogen biosynthesis [7]): marked ability to inhibit estrogen biosynthesis | ability to inhibit estrogen biosynthesis (in vivo) (estrogen biosynthesis [5]; in vivo): marked ability to inhibit estrogen biosynthesis

CCCCCCC(=O)OC1=C2CCC3C4CCC(=O)C4(C)CCC3C2(C)CCC1=O (stereo not shown) [4-heptanoate-4-A]
ability to inhibit estrogen biosynthesis (in vitro) (estrogen biosynthesis [7]): This expectation has been borne out
